In patent US20250250230A1, “HETEROCYCLIC COMPOUND” (TAKEDA PHARMACEUTICAL COMPANY LIMITED, priority 2022, published 2025):

target: T1, human orexin type 2 receptor (Homo sapiens, UniProt O43614); experiment: Measurement of orexin type 2 receptor agonist activity (calcium fluorescence, Fluo-4 AM, FDSS); type: cell-based; conditions: test compound 3 μM; CHO cells expressing human OX2 receptor; DMSO = 0%, orexin A (human) = 100%
T1 construct: expressed in transfected cells
T1 sequence (O43614 1-444): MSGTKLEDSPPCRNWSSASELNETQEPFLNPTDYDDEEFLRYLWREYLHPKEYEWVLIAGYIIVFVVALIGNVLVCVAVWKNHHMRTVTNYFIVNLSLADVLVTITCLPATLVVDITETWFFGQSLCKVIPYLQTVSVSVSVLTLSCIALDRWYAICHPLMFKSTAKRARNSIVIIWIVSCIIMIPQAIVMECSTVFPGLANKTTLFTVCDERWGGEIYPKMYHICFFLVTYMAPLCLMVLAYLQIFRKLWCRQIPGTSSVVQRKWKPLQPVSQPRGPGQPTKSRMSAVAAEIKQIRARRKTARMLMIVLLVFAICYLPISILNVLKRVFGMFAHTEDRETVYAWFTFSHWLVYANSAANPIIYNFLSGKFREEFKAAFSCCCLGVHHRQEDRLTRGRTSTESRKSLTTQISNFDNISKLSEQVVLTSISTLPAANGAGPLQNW
Outline: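 Agonist response scaled between vehicle (0%) and human orexin A at 10 nM final (100%), from 2-min kinetic Fluo-4 fluorescence reads. Stable hOX2R CHO-K1 clone, dye-loaded in HBSS/20 mM HEPES/0.1% BSA with 1.25 mM probenecid before compound addition.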

OX2R agonist activity (3 μM, %)	SMILES
98%	CCS(=O)(=O)NC1CCN(C(=O)C2CC2c2ccccc2-c2c(F)cccc2F)C1 (racemic) [Example 27, a mixture of rac-N-{(3R)-1-[(1R,2R)-2-(2′,6′-difluoro[1,1′-biphenyl]-2-yl)cyclopropane-1-carbonyl]pyrrolidin-3-yl}ethanesulfonamide and rac-N-{(3S)-1-[(1R,2R)-2-(2′,6′-difluoro[1,1′-biphenyl]-2-yl)cyclopropane-1-carbonyl]pyrrolidin-3-yl}ethanesulfonamide]
81%	CS(=O)(=O)NC1CCCN(C(=O)C2CC2c2ccccc2-c2ccccc2F)C1 (racemic) [Example 72, a mixture of rac-N-{(3R)-1-[(1R,2R)-2-(2′-fluoro[1,1′-biphenyl]-2-yl)cyclopropane-1-carbonyl]piperidin-3-yl}methanesulfonamide and rac-N-{(3S)-1-[(1R,2R)-2-(2′-fluoro[1,1′-biphenyl]-2-yl)cyclopropane-1-carbonyl]piperidin-3-yl}methanesulfonamide]
101%	CS(=O)(=O)N[C@H]1CCCN(C(=O)C2CC2c2ccc(F)cc2-c2c(F)cccc2F)C1 (stereo partly drawn) [Example 201, N-{(3S)-1-[(1R,2R)-2-(2′,5,6′-trifluoro[1,1′-biphenyl]-2-yl)cyclopropane-1-carbonyl]piperidin-3-yl}methanesulfonamide, or N-{(3S)-1-[(1S,2S)-2-(2′,5,6′-trifluoro[1,1′-biphenyl]-2-yl)cyclopropane-1-carbonyl]piperidin-3-yl}methanesulfonamide]
99%	CS(=O)(=O)NC[C@H]1[C@H](CF)CN1C(=O)[C@@H]1C[C@@]1(F)c1ccccc1-c1c(F)cccc1F [Example 400, N-{[(2R,3R)-1-[(1S,2S)-2-(2′,6′-difluoro[1,1′-biphenyl]-2-yl)-2-fluorocyclopropane-1-carbonyl]-3-(fluoromethyl)azetidin-2-yl]methyl}methanesulfonamide]
86%	C[C@H]1CN(C(=O)[C@@H]2C[C@H]2c2ccccc2-c2c(F)cccc2F)C[C@H]1NS(C)(=O)=O [Example 265, N-{(3S,4S)-1-[(1R,2R)-2-(2′,6′-difluoro[1,1′-biphenyl]-2-yl)cyclopropane-1-carbonyl]-4-methylpyrrolidin-3-yl}methanesulfonamide]
100%	CNS(=O)(=O)NC[C@@H]1[C@H](F)CN1C(=O)[C@@H]1C[C@@]1(F)c1ccc(Cl)cc1-c1c(F)cccc1F [Example 443, N-({(2R,3R)-1-[(1S,2S)-2-(5-chloro-2′,6′-difluoro[1,1′-biphenyl]-2-yl)-2-fluorocyclopropane-1-carbonyl]-3-fluoroazetidin-2-yl}methyl)-N′-methylsulfuric diamide]
84%	CS(=O)(=O)NC1CCCN(C(=O)C2CC2c2ccccc2-c2ccccc2Cl)C1 (racemic) [Example 74, a mixture of rac-N-{(3R)-1-[(1R,2R)-2-(2′-chloro[1,1′-biphenyl]-2-yl)cyclopropane-1-carbonyl]piperidin-3-yl}methanesulfonamide and rac-N-{(3S)-1-[(1R,2R)-2-(2′-chloro[1,1′-biphenyl]-2-yl)cyclopropane-1-carbonyl]piperidin-3-yl}methanesulfonamide]
61%	CS(=O)(=O)NC1CCCN(C(=O)C2CC2c2c(F)cccc2-c2ccccc2)CC1 (racemic) [Example 95, a mixture of rac-N-{(4R)-1-[(1R,2R)-2-(3-fluoro[1,1′-biphenyl]-2-yl)cyclopropane-1-carbonyl]azepan-4-yl}methanesulfonamide and rac-N-{(4S)-1-[(1R,2R)-2-(3-fluoro[1,1′-biphenyl]-2-yl)cyclopropane-1-carbonyl]azepan-4-yl}methanesulfonamide]
52%	CS(=O)(=O)NC1CCCN(C(=O)C2CC2c2ccccc2-c2ncccc2F)CC1 (mixture of isomers) [Example 256, a mixture of N-[(4S)-1-{(1R,2R)-2-[2-(3-fluoropyridin-2-yl)phenyl]cyclopropane-1-carbonyl}azepan-4-yl]methanesulfonamide and N-[(4S)-1-{(1S,2S)-2-[2-(3-fluoropyridin-2-yl)phenyl]cyclopropane-1-carbonyl}azepan-4-yl]methanesulfonamide]
97%	CS(=O)(=O)NC[C@H]1[C@H](CO)CN1C(=O)[C@@H]1C[C@@]1(F)c1ccccc1-c1c(F)cccc1F [Example 391, N-{[(2R,3R)-1-[(1S,2S)-2-(2′,6′-difluoro[1,1′-biphenyl]-2-yl)-2-fluorocyclopropane-1-carbonyl]-3-(hydroxymethyl)azetidin-2-yl]methyl}methanesulfonamide]
93%	CS(=O)(=O)NC[C@@H]1CCN1C(=O)C1CC1c1c(-c2c(F)cccc2F)csc1F (stereo partly drawn) [Example 367, N-{[(2S)-1-{(1R,2R)-2-[4-(2,6-difluorophenyl)-2-fluorothiophen-3-yl]cyclopropane-1-carbonyl}azetidin-2-yl]methyl}methanesulfonamide, or N-{[(2S)-1-{(1S,2S)-2-[4-(2,6-difluorophenyl)-2-fluorothiophen-3-yl]cyclopropane-1-carbonyl}azetidin-2-yl]methyl}methanesulfonamide]
85%	CS(=O)(=O)NC1CCCN(C(=O)C2CC2c2ccccc2-c2ccc(F)cc2F)CC1 (racemic) [Example 56, a mixture of rac-N-{(4R)-1-[(1R,2R)-2-(2′,4′-difluoro[1,1′-biphenyl]-2-yl)cyclopropane-1-carbonyl]azepan-4-yl}methanesulfonamide and rac-N-{(4S)-1-[(1R,2R)-2-(2′,4′-difluoro[1,1′-biphenyl]-2-yl)cyclopropane-1-carbonyl]azepan-4-yl}methanesulfonamide]
99%	CCS(=O)(=O)NC12CC1CN(C(=O)C1CC1c1ccccc1-c1c(F)cccc1F)C2 (racemic) [Example 237, a mixture of rac-N-{(1S,5R)-3-[(1R,2R)-2-(2′,6′-difluoro[1,1′-biphenyl]-2-yl)cyclopropane-1-carbonyl]-3-azabicyclo[3.1.0]hexan-1-yl}ethanesulfonamide and rac-N-{(1R,5S)-3-[(1R,2R)-2-(2′,6′-difluoro[1,1′-biphenyl]-2-yl)cyclopropane-1-carbonyl]-3-azabicyclo[3.1.0]hexan-1-yl}ethanesulfonamide]
100%	CCS(=O)(=O)N[C@@H]1CN(C(=O)[C@@H]2C[C@H]2c2ccccc2-c2c(F)cccc2F)CCC1(F)F [Example 240, N-{(3R)-1-[(1R,2R)-2-(2′,6′-difluoro[1,1′-biphenyl]-2-yl)cyclopropane-1-carbonyl]-4,4-difluoropiperidin-3-yl}ethanesulfonamide]
108%	CS(=O)(=O)N[C@H]1CCCCN(C(=O)C2CC2c2ccccc2-c2c(F)cccc2F)C1 (mixture of isomers) [Example 184, a mixture of N-{(3S)-1-[(1R,2R)-2-(2′,6′-difluoro[1,1′-biphenyl]-2-yl)cyclopropane-1-carbonyl]azepan-3-yl}methanesulfonamide and N-{(3S)-1-[(1S,2S)-2-(2′,6′-difluoro[1,1′-biphenyl]-2-yl)cyclopropane-1-carbonyl]azepan-3-yl}methanesulfonamide]
111%	CS(=O)(=O)NC1CCN(C(=O)C2CC2c2ccc(F)cc2-c2c(F)cccc2F)C1 (racemic) [Example 135, a mixture of rac-N-{(3R)-1-[(1R,2R)-2-(2′,5,6′-trifluoro[1,1′-biphenyl]-2-yl)cyclopropane-1-carbonyl]pyrrolidin-3-yl}methanesulfonamide and rac-N-{(3S)-1-[(1R,2R)-2-(2′,5,6′-trifluoro[1,1′-biphenyl]-2-yl)cyclopropane-1-carbonyl]pyrrolidin-3-yl}methanesulfonamide]
98%	CS(=O)(=O)N[C@H]1CCCN(C(=O)C2CC2(F)c2ccccc2-c2c(F)cccc2F)CC1 (mixture of isomers) [Example 290, a mixture of N-{(4S)-1-[(1R,2R)-2-(2′,6′-difluoro[1,1′-biphenyl]-2-yl)-2-fluorocyclopropane-1-carbonyl]azepan-4-yl}methanesulfonamide and N-{(4S)-1-[(1S,2S)-2-(2′,6′-difluoro[1,1′-biphenyl]-2-yl)-2-fluorocyclopropane-1-carbonyl]azepan-4-yl}methanesulfonamide]
95%	CS(=O)(=O)NC1CCN(C(=O)C2CC2c2cscc2-c2c(F)cccc2F)C1 (racemic) [Example 321, a mixture of rac-N-[(3R)-1-{(1R,2R)-2-[4-(2,6-difluorophenyl)thiophen-3-yl]cyclopropane-1-carbonyl}pyrrolidin-3-yl]methanesulfonamide and rac-N-[(3R)-1-{(1R,2R)-2-[4-(2,6-difluorophenyl)thiophen-3-yl]cyclopropane-1-carbonyl}pyrrolidin-3-yl]methanesulfonamide]
